Laboratory results reported in US11079398B2, “Method for measurement of peptidic degradation products of a proteolytic cascade in blood samples” (ATTOQUANT DIAGNOSTICS GMBH, priority 2012, dated 2021).

What was measured:
[1] = system: renin-angiotensin system (RAS); experiment: RSSE-Fingerprinting: blood incubated at 37° C. with added agents, LC-MS/MS quantification of angiotensin peptides; type: biochemical, human; conditions: for Ang 1-8 steady state equilibrium level compared to control / Ang 1-10 steady state equilibrium level compared to control: heparinised blood, agent added prior to incubation at 37° C., 2 h or 4 h
Method: Blood samples were collected and anti-coagulated with standardised heparin tubes (BD). As indicated in FIGS. 3A-3C, plasma separation has been done for the respective samples before the incubation to reach steady state equilibrium.
Following plasma separation by centrifugation at 3000 rcf for 10 minutes at 4° C., […] of plasma was applied onto an activated and equilibrated SEP-PAK™ C18 cartridge. Sample matrix components were removed by washing three times with 1 ml water. Bound analytes were then eluted with 1 ml of methanol. Eluates were evaporated to dryness and reconstituted in 10% acetonitril/90% water supplemented with 0.1% formic acid followed by subjection to LC-MS/MS analysis.
A vacuum manifold has been used for sample processing. • 1. Activation: EtOH abs. • 2. Equilibration: 2×1 ml H2O • 3. Loading: 0.2-1 ml stabilised plasma • 4. Washing: 3×1 ml H2O • 5. Elution: 1 ml MeOH Quantification and Signal Integration
MRM chromatograms were integrated using Analyst 1.5.1 software provided by Applied Biosystems. The threshold for the quantification limit was set at a signal-to-noise ratio of 10. Integration signals not reaching this ratio were set to zero. Analyte signals were related to internal standard signals and concentration was calculated from initially spiked amounts of internal standards.

[2] = target: ACE2 (Homo sapiens, UniProt Q9BYF1); conditions: artificial matrix, vast excess of substrates; cited from earlier work
Chain of ACE2 (Q9BYF1 18-805): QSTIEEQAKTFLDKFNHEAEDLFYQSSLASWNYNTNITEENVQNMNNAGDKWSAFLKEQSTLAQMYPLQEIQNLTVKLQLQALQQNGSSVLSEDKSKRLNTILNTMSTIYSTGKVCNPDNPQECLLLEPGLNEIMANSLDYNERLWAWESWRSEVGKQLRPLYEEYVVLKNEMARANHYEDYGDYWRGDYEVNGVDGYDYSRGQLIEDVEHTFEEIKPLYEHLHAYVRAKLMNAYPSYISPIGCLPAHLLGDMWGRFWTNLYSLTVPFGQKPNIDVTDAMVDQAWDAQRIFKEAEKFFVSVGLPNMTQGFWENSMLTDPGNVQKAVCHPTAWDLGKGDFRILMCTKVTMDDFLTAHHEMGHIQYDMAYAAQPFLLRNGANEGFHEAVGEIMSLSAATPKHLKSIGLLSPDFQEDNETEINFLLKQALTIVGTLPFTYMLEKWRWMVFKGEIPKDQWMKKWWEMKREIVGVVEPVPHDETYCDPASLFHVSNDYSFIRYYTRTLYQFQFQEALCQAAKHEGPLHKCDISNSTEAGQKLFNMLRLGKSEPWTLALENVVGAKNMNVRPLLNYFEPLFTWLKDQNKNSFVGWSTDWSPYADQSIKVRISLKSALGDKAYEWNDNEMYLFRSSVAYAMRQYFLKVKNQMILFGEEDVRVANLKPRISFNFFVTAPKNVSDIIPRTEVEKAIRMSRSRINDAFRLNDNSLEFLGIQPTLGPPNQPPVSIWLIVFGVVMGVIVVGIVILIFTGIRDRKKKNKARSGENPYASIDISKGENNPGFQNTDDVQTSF

Row | Molecule | Ang 1-8 steady state equilibrium level compared to control [1] | Ang 1-10 steady state equilibrium level compared to control [1] | further results
1 | CC(C)C[C@@H](N)[C@H](O)C(=O)N[C@H](C(=O)N[C@H](C(=O)N[C@@H](CC(=O)O)C(=O)O)C(C)C)C(C)C [Amastatin] | massively increase |  | steady state equilibrium Ang 1-10 level in the presence of ACE2 (ACE2 mediated Ang 1-9 production) ([1]; FIG. 2C1/2C3, 2 h incubation): further increases
2 | C[C@H](CS)C(=O)N1CCC[C@H]1C(=O)O [Captopril] | decreased | increased | 
3 | NCCCC[C@H](N[C@@H](CCc1ccccc1)C(=O)O)C(=O)N1CCC[C@H]1C(=O)O [Lisinopril] | decreased | increased | 
4 | ACE2: recombinant soluble human ACE2 produced by Apeiron Biologics |  |  | shift of RSSE-Fingerprint ([1]; 5 μg/ml enzyme added prior to incubation): shifted as expected
5 | angiotensin II (DRVYIHPF; Angiotensin-2; UniProt P01019 25-32, looked up) [Ang 1-8, angiotensin peptide, ACE2 substrate] |  |  | maximal ACE2 conversion rate for Ang 1-8 to Ang 1-7 relative to conversion rate for Ang 1-10 to Ang 1-9 [2]: 65 times
